Experimental data: patent US20210154190A1, “SHP2 INHIBITOR COMPOSITIONS AND METHODS FOR TREATING CANCER” (Revolution Medicines, Inc., priority 2018, published 2021)
Numbering of substitutions follows the chain as printed. Values joined by “and” are separate entries in the source; they are usually repeats but may differ in a detail not shown here. Equal entries are not always repeated. Where two headings read alike, the source gives them in different places.

Assays:
Assay type in all cases: biochemical
human SHP2-FL wild type = target: T1, human SHP2-FL wild type (Homo sapiens, UniProt Q06124); assay: SHP2 allosteric inhibition assay (DiFMUP), wild type
T1 sequence (Q06124 1-593): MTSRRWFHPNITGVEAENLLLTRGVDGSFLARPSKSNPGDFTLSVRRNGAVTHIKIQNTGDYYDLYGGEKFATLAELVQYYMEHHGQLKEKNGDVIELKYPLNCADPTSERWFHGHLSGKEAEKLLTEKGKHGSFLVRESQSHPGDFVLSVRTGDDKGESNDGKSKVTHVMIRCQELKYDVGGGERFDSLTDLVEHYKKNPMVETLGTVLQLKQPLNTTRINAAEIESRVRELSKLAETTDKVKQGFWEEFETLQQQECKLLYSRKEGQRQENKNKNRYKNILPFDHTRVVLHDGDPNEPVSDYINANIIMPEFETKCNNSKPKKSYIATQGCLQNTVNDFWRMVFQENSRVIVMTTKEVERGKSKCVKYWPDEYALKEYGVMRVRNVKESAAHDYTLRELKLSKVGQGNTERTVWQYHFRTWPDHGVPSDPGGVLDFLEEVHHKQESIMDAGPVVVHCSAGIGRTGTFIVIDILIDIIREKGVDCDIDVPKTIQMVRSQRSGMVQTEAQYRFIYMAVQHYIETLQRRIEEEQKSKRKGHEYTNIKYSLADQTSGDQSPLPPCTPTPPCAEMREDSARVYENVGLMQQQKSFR
Experimental: (§1) Full-length SHP2 is allosterically activated through binding of bis-tyrosyl-phorphorylated peptides to its Src Homology 2 (SH2) domains. The latter activation step leads to the release of the auto-inhibitory interface of SHP2, which in turn renders the SHP2 protein tyrosine phosphatase (PTP) active and available for substrate recognition and reaction catalysis. The catalytic activity of SHP2 was monitored using the surrogate substrate DiFMUP in a prompt fluorescence assay format.
(§2) […] […] 50 μl stop solution (0.1 mM sodium pervanadate) was added to each well, the plate was shaken briefly to mix, and read in endpoint mode on a SpectraMax M5 plate reader (Molecular Devices) using excitation and emission wavelengths of 340 nm and 450 nm. Data was imported into GraphPad Prism. Plots of fluorescence intensity vs. log Molar [compound] were created and modeled with a 3-parameter sigmoidal concentration response equation in order to estimate IC50.
(§3) Reactions were then allowed to proceed for 30 minutes and stopped by the addition of a phosphatase inhibitor, sodium pervanadate. De-phosphorylation of DiFMUP results in production of a fluorescent product. Product fluorescence was determined and plotted as a function of compound concentration in order to determine the IC50 for each compound on each mutant using a four parameter sigmoidal dose response function in Prism (GraphPad).
(§4) NsCs mimics the role of the cytosolic domain of a protein tyrosine kinase in this model system.

human SHP2-FL S189A = target: T2, human SHP2-FL S189A (Homo sapiens, UniProt Q06124, S189A); assay: SHP2 allosteric inhibition assay (DiFMUP), S189A
T2 sequence (Q06124 1-593 S189A): T1 sequence (Q06124 1-593) with S189A
Experimental: as §1, §2, §3, §4

human SHP2-FL S502P = target: T3, human SHP2-FL S502P (Homo sapiens, UniProt Q06124, S502P); assay: SHP2 allosteric inhibition assay (DiFMUP), S502P
T3 sequence (Q06124 1-593 S502P): T1 sequence (Q06124 1-593) with S502P
Experimental: as §1, §2, §3, §4

Row | SMILES | Biochemical sensitivity (human SHP2-FL wild type; Variant WT) | Biochemical sensitivity (human SHP2-FL S189A; Variant S189A) | Biochemical sensitivity (human SHP2-FL S502P; Variant S502P) | IC50 (human SHP2-FL wild type; Wild-type SHP2, 0.5 μM NsCs peptide (Activated), read-out: IC50) | IC50 (human SHP2-FL wild type; Wild-type SHP2, 0.5 μM NsCs peptide (Activated), read-out: pIC50 (converted)) | IC50 (human SHP2-FL wild type; Wild-type SHP2, No Peptide Control (Non-Activated), read-out: IC50) | IC50 (human SHP2-FL wild type; Wild-type SHP2, No Peptide Control (Non-Activated), read-out: pIC50 (converted)) | IC50 (human SHP2-FL S189A; IC50 (nM), SHP2 S189A 0.5 μM NsCs peptide (Activated), human SHP2-FL S189A, 0.5 μM NsCs peptide (activated)) | IC50 (human SHP2-FL S189A; human SHP2-FL S189A alone, no peptide (non-activated), read-out: IC50 (nM), SHP2 S189A No Peptide Control (Non-Activated)) | IC50 (human SHP2-FL S189A; human SHP2-FL S189A alone, no peptide (non-activated), read-out: pIC50, SHP2 S189A No Peptide Control (Non-Activated) (converted)) | IC50 (human SHP2-FL S189A; pIC50, SHP2 S189A 0.5 μM NsCs peptide (Activated), human SHP2-FL S189A, 0.5 μM NsCs peptide (activated)) | IC50 (human SHP2-FL S502P; IC50 (nM), SHP2 S502P 0.5 μM NsCs peptide (Activated), human SHP2-FL S502P in presence of 0.5 μM NsCs peptide (activated)) [nM] | IC50 (human SHP2-FL S502P; human SHP2-FL S502P alone, no peptide (non-activated), read-out: IC50 (nM), SHP2 S502P No Peptide Control (Non-Activated)) | IC50 (human SHP2-FL S502P; human SHP2-FL S502P alone, no peptide (non-activated), read-out: pIC50, SHP2 S502P No Peptide Control (Non-Activated) (converted)) | IC50 (human SHP2-FL S502P; pIC50, SHP2 S502P 0.5 μM NsCs peptide (Activated), human SHP2-FL S502P in presence of 0.5 μM NsCs peptide (activated)) [nM]
1 | Cc1nc(N2CCC3(CC2)CO[C@@H](C)[C@H]3N)c(CO)nc1-c1cccc(Cl)c1Cl [Compound B] | yes (Sensitive if IC50 < 2000 nM) | yes (Sensitive if IC50 < 2000 nM) | no (Sensitive if IC50 < 2000 nM) | – | – | – | – | – | – | – | – | – | – | – | –
2 | Nc1nc(N2CCC3(CCC[C@H]3N)CC2)cnc1Sc1ccnc(Cl)c1Cl [Compound 1] | – | – | – | 2.62 nM and 2.69 nM and 2.12 nM and 2.37 nM | 2.63 nM and 2.69 nM and 2.14 nM and 2.34 nM | 2.01 nM and 2.43 nM and 1.36 nM and 2.24 nM | 2 nM and 2.45 nM and 1.35 nM and 2.24 nM | 3.38 nM and 3.76 nM and 2.99 nM and 3.79 nM | 3.01 nM and 3.35 nM and 2.75 nM and 3.11 nM | 3.02 nM and 3.31 nM and 2.75 nM and 3.09 nM | 3.39 nM and 3.72 nM and 3.02 nM and 3.8 nM | > 10000 | 237 nM and 227 nM and 221 nM and 308 nM | 234 nM and 229 nM and 219 nM and 309 nM | > 10000
